{
  "source": "patent US20230416298A1",
  "about": "“PRODRUGS OF NEUROACTIVE STEROIDS” (Brii Biosciences, Inc., priority 2020, published 2023)",
  "key": {"Liver S9 stability": {"test": "Liver S9 stability", "format": "in vitro ADME", "conditions": "human liver S9, 37° C.; for half-life at 1 μM: time points up to 60 min; for Stability in Human Liver S9 Formation of parent compound: Yes/No", "protocol": "Intermediate solution: Dilute 5 μL of compounds or controls (7-ethoxycoumarin) from stock solution (10 mM) with 495 μL MeOH (Conc.: 100 μM, 1% DMSO, 99% MeOH). Stop solution: Cold ACN (including 100 ng/mL Tolbutamide and Labetalol as internal standard). Add 2 μL test compound or control working solution/well to all plates (T0, T5, T10, T20, T30, T60, NCF60) except matrix blank. Add 600 μL/well stop solution (cold in 4° C., including 100 ng/mL Tolbutamide/100 ng/mL Labetalol) to terminate the TO plate, then put it on ice. Dispense 840 μL/well S9 solution to 96-well plate as reservoir according to plate map. Then add 100 μL/well to every plate by Apricot. Incubate S9 solution and compound at 37° C. for about 10 min except NCF60 and TO. After adding S9 solution and 98 μ LPB buffer to NCF60, incubate at 37° C. without pre-warming, start timer 1. After 60 min, add 600 μL/well stop solution to terminate the reaction. After pre-warming, dispense 760 μL/well cofactor solution to 96-well plate as reservoir according to plate map. Then add 98 μL/well to every plate by Apricot to start reaction. Incubate at 37° C., start timer 2, Add 600 μL/well stop solution (cold in 4° C., including 100 ng/mL Tolbutamide and Labetalol) to terminate the reaction. Samples are centrifuged at 4000 rpm for 20 min. While centrifuging, load 8×new 96-well plate with 300 μL HPLC water, then transfer 100 μL supernatant, mix with water for LC/MS/MS, transferred to Bioanalytical Services for LC-MS/MS analysis. Use equation of first order kinetics to calculate t1/2 and CL: Equation of first order kinetics: […]"}, "Plasma stability": {"test": "Plasma stability", "format": "in vitro ADME", "conditions": "37° C.; for Stability in Human Plasma Formation of parent compound: 2 μM, Yes/No; for half-life at 2 μM: pooled plasma, pH 7.4, human plasma, time points 0, 10, 30, 60 and 120 min", "protocol": "The pooled frozen plasma was thawed in a water bath at 37° C. prior to experiment. Plasma was centrifuged at 4000 rpm for 5 min and the clots were removed if any. The pH will be adjusted to 7.4±0.1 if required.\nPreparation of test compounds and positive control (propantheline bromide): 1 mM intermediate solution was prepared by diluting 10 μL of the stock solution with 90 μL MeOH; 1 mM intermediate of positive control Propantheline was prepared by diluting 10 μL of the stock solution with 90 μL ultrapure water. 100 μM dosing solution was prepared by diluting 20 μL of the intermediate solution (1 mM) with 180 μL MeOH. 98 μL of blank plasma was spiked with 2 μL of dosing solution (100 μM) to achieve 2 μM of the final concentration in duplicate and samples were incubated at 37° C. in a water bath. At each time point (0,10, 30, 60 and 120 min), 400 μL of stop solution (0.1% FA in MeOH containing 200 ng/mL tolbutamide and 200 ng/mL Labetalol) was added to precipitate protein and mixed thoroughly. Centrifuged sample plates at 4,000 rpm for 10 min. An aliquot of supernatant (100 μL) was transferred from each well to another plates.\nData analysis: The % remaining of test compound after incubation in plasma was calculated using following equation:\n% Remaining=[…]×(PAR at appointed incubation time/PAR at T0 time)\nwhere PAR is the peak area ratio of analyte versus internal standard (IS) (LC/MS/MS mobile phase condition: 0.1% Formic Acid in Water/0.1% Formic Acid in Acetonitrile. The appointed incubation time points are TO (0 min), Tn (n=0, 10, 30, 60, 120 min)."}},
  "data": [
    {"smiles": "CC(=O)OCCCCC(=O)O[C@@H]1CC[C@@]2(C)[C@@H](CC[C@@H]3[C@@H]2CC[C@]2(C)[C@@H](C(C)=O)CC[C@@H]32)C1", "note": "[Example 16, [(3R,5S,8R,9S,10S,13S,14S,17S)-17-acetyl-10,13-dimethyl-2,3,4,5,6,7,8,9,11,12,14,15,16,17-tetradecahydro-1H-cyclopenta[a]phenanthren-3-yl] 5-acetoxypentanoate]", "values": [
      {"measurement": "half-life at 1 μM", "setting": "Liver S9 stability", "value": "< 50", "unit": "min"},
      {"measurement": "Stability in Human Liver S9 Formation of parent compound", "setting": "Liver S9 stability", "value": "No"},
      {"measurement": "Stability in Human Plasma Formation of parent compound", "setting": "Plasma stability", "value": "No"},
      {"measurement": "half-life at 2 μM", "setting": "Plasma stability", "value": "50 to 200", "unit": "min"}
    ]},
    {"smiles": "CC(=O)[C@H]1CC[C@H]2[C@@H]3CC[C@H]4C[C@H](OC(=O)NCCOC(=O)C(C)C)CC[C@]4(C)[C@H]3CC[C@]12C", "note": "[Example 22, 2-[[(3R,5S,8R,9S,10S,13S,14S,17S)-17-acetyl-10,13-dimethyl-2,3,4,5,6,7,8,9,11,12,14,15,16,17-tetradecahydro-1H-cyclopenta[a]phenanthren-3-yl]oxycarbonylamino]ethyl 2-methylpropanoate]", "values": [
      {"measurement": "half-life at 1 μM", "setting": "Liver S9 stability", "value": "< 50", "unit": "min"},
      {"measurement": "Stability in Human Liver S9 Formation of parent compound", "setting": "Liver S9 stability", "value": "Yes"},
      {"measurement": "Stability in Human Plasma Formation of parent compound", "setting": "Plasma stability", "value": "No"},
      {"measurement": "half-life at 2 μM", "setting": "Plasma stability", "value": "> 200", "unit": "min"}
    ]},
    {"smiles": "CC(=O)[C@H]1CC[C@H]2[C@@H]3CC[C@H]4C[C@H](OC(=O)OCCOC(=O)C(C)C)CC[C@]4(C)[C@H]3CC[C@]12C", "note": "[Example 19, 2-[[(3R,5S,8R,9S,10S,13S,14S,17S)-17-acetyl-10,13-dimethyl-2,3,4,5,6,7,8,9,11,12,14,15,16,17-tetradecahydro-1H-cyclopenta[a]phenanthren-3-yl]oxycarbonyloxy]ethyl 2-methylpropanoate]", "values": [
      {"measurement": "half-life at 1 μM", "setting": "Liver S9 stability", "value": "< 50", "unit": "min"},
      {"measurement": "Stability in Human Liver S9 Formation of parent compound", "setting": "Liver S9 stability", "value": "Yes"},
      {"measurement": "Stability in Human Plasma Formation of parent compound", "setting": "Plasma stability", "value": "No"},
      {"measurement": "half-life at 2 μM", "setting": "Plasma stability", "value": "50 to 200", "unit": "min"}
    ]},
    {"smiles": "CCCCCC(=O)O[C@@H]1CC[C@@]2(C)[C@@H](CC[C@@H]3[C@@H]2CC[C@]2(C)[C@@H](C(C)=O)CC[C@@H]32)C1", "note": "[Example 1, [(3R,5S,8R,9S,10S,13S,14S,17S)-17-acetyl-10,13-dimethyl-2,3,4,5,6,7,8,9,11,12,14,15,16,17-tetradecahydro-1H-cyclopenta[a]phenanthren-3-yl]hexanoate]", "values": [
      {"measurement": "half-life at 1 μM", "setting": "Liver S9 stability", "value": "< 50", "unit": "min"},
      {"measurement": "Stability in Human Liver S9 Formation of parent compound", "setting": "Liver S9 stability", "value": "No"},
      {"measurement": "Stability in Human Plasma Formation of parent compound", "setting": "Plasma stability", "value": "No"},
      {"measurement": "half-life at 2 μM", "setting": "Plasma stability", "value": "> 200", "unit": "min"}
    ]},
    {"smiles": "CCCCCCC(=O)O[C@@H]1CC[C@@]2(C)[C@@H](CC[C@@H]3[C@@H]2CC[C@]2(C)[C@@H](C(C)=O)CC[C@@H]32)C1", "note": "[Example 2, [(3R,5S,8R,9S,10S,13S,14S,17S)-17-acetyl-10,13-dimethyl-2,3,4,5,6,7,8,9,11,12,14,15,16,17-tetradecahydro-1H-cyclopenta[a]phenanthren-3-yl]heptanoate]", "values": [
      {"measurement": "half-life at 1 μM", "setting": "Liver S9 stability", "value": "< 50", "unit": "min"},
      {"measurement": "Stability in Human Liver S9 Formation of parent compound", "setting": "Liver S9 stability", "value": "No"},
      {"measurement": "Stability in Human Plasma Formation of parent compound", "setting": "Plasma stability", "value": "No"},
      {"measurement": "half-life at 2 μM", "setting": "Plasma stability", "value": "> 200", "unit": "min"}
    ]},
    {"smiles": "CC(=O)[C@H]1CC[C@H]2[C@@H]3CC[C@H]4C[C@H](OC(=O)OCCNC(=O)C(C)C)CC[C@]4(C)[C@H]3CC[C@]12C", "note": "[Example 24, [(3R,5S,8R,9S,10S,13S,14S,17S)-17-acetyl-10,13-dimethyl-2,3,4,5,6,7,8,9,11,12,14,15,16,17-tetradecahydro-1H-cyclopenta[a]phenanthren-3-yl] 2-(2-methylpropanoylamino)ethyl carbonate)]", "values": [
      {"measurement": "half-life at 1 μM", "setting": "Liver S9 stability", "value": "< 50", "unit": "min"},
      {"measurement": "Stability in Human Liver S9 Formation of parent compound", "setting": "Liver S9 stability", "value": "No"},
      {"measurement": "Stability in Human Plasma Formation of parent compound", "setting": "Plasma stability", "value": "No"},
      {"measurement": "half-life at 2 μM", "setting": "Plasma stability", "value": "> 200", "unit": "min"}
    ]}
  ]
}
